Reference: patent US20140119985A1, “Photodynamic Control of Microbial Growth on Surfaces” (ORTNER CLEANROOM ENGINEERING GMBH, priority 2010, published 2014)
Read-outs that look alike come from different tables or passages of the source.

Legend:
Staphylococcus aureus [1] = experiment: Contact assay on dye-treated textile pieces; type: cell-based; conditions: for cell growth: irradiation 1 min, distance 50 cm, about 10^4 cfu; for cfu calculated per ml cell culture: plates incubated 24 h; for number of colonies upon irradiation: distance 30 cm
Klebsiella pneumoniae = conditions: LED 623 nm
Protocol: (§1) Typically, 3 μl of a growing cell culture having a titer of 7×10^7 cfu/ml were used in contact assays, whereas 50 μl were employed in plating assays. In some assays, the cell cultures were employed in a dilution of 10^−1, 10^−2, 10^−3, 10^−4, and 10^−5, respectively.
For contact assays, pieces of the textile fabric having a defined size of 1 cm×1 cm were employed.
(§2) In contact assays, the distance between the radiation source and the piece of textile fabric was in a range between 10 cm and 60 cm.
In brief, the contact assays were performed as follows: Pieces of a textile fabric (ION-NOSTAT VI.2) having a defined size (1×1 cm) were immersed for 3 h in an aqueous solution of reactive dye, such as methylene blue (100 μg/ml each). After complete drying of the textile pieces, 3 μl of a growing cell culture were added to the surface of the textile pieces. The pieces were irradiated with appropriate radiation (light) for a given period of time. Then, the textile pieces were contacted with agar plates; and the plates were incubated at 37° C. for 24 h.
The contact assay was performed as described in Example 1 using an aqueous solution of diemethyl methylene blue (DMMB) and new methylene blue (NMB), respectively (100 μg/ml each) as well as a combination thereof. Staphylococcus aureus and Klebsiella pneumoniae were employed as test organisms. Irradiation was accomplished by means of a LED (High Power Alustar 3 W 10° LED×ON Rot, from Conrad, Hirschau, Germany) at a wavelength of 623 nm. The distance between the LED and the textile pieces was 50 cm.

[2] = system: Stenotrophomonas maltophilia; conditions: dilution 10^−5
Protocol: as §1
(§3) Methylene blue (MB), dimethyl methylene blue (DMMB), new metylene blue (NMB), and toluidine blue (TB) were provided as solutions having a dye concentration of 100 μg/ml. 50 μl of either solution were used for plating assays.
(§4) In brief, the plating assays were performed as follows: In a well of a (96 well) microtiter plate 50 μl of a growing cell culture were mixed with aqueous solution of reactive dye, such as methylene blue (100 μg/ml each). The samples were irradiated with appropriate radiation (light) for a given period of time. The samples (100 μl) were plated on agar plates. The plates were incubated at 37° C. for 24 h.

Candida albicans [3] = conditions: dilution 10^−4, incubation period two days longer as compared to control
Protocol: as §1, §3, §4

Staphylococcus aureus [4] = conditions: for colony forming units obtained: incubation with dye (3-5 min) without irradiation; for colonies detected: irradiation 3 min
[5] = system: Stenotrophomonas maltophilia; experiment: Contact assay on dye-treated textile pieces; type: cell-based; conditions: for cfu calculated per ml cell culture: plates incubated 48 h
Protocol: as §1
(§5) The textile fabric employed was a clean room textile, in particular ION-NOSTAT VI.2 (Dastex Reinraumzubehör, Muggensturm, Germany). For contact assays, pieces of the textile fabric having a defined size of 1 cm×1 cm were employed.
as §2
(§6) After complete drying of the textile pieces, 3 μl of a growing cell culture were added to the surface of the textile pieces. The pieces were irradiated with appropriate radiation (light) for a given period of time. Then, the textile pieces were contacted with agar plates; and the plates were incubated at 37° C. for 24 h.

Candida albicans [6] = experiment: Contact assay on dye-treated textile pieces; type: cell-based; conditions: irradiation 1 min, 2 min, 3 min, laser 15 mW, 532 nm
Protocol: as §1, §5, §2, §6

[7] = black light lamp, irradiation for 30 s
[8] = black light lamp, irradiation for 3 min
[9] = mercury lamp, irradiation for 30 s
[10] = mercury lamp, irradiation for 3 min
[11] = incubation with dye, mercury lamp 515-560 nm
[12] = 1 × pre-irradiation (3 min) of textile before contact with cells
[13] = 2 × pre-irradiation (3 min each, 90 min between) of textile before contact with cells
[14] = Control (dye, no irrad.), dilution 10^−5
[15] = Irradiation for 3 min, dilution 10^−5
[16] = irradiation 3 min, laser 15 mW, 532 nm
[17] = textile immersed in dye 100 μg/ml, irradiation 3 min, laser 15 mW, 532 nm
[18] = textile incubated with dye 100 μg/ml, no irradiation

With `Cc1cc(N(C)C)cc2[s+]c3cc(N(C)C)cc(C)c3nc12.[Cl-]` [dimethyl methylene blue, 3,7-bis(dimethylamino)-1,9-dimethyldiphenothiazin-5-ium chloride] the “dye released from stained textile pieces” value (single immersion with acetone, acetic acid, and ethanol, data not shown) was “Trace amounts”, the “dye released from stained textile pieces” value (two cycles of immersion in 99% acetone, 99% acetic acid, 1 M NaOH, 99% ethanol, stained with 100 mg/l) was “No dye” and the cell growth (Staphylococcus aureus [1]; LED 623 nm) was “no cell growth could be detected”. The “inhibition of cell growth” value (Klebsiella pneumoniae; about 10^4 cfu) was “significant inhibition of cell growth”, the cell numbers (Klebsiella pneumoniae; after 5 min of irradiation) was “noticeable reduction of cell numbers” and the “reduction of cell numbers” value (Klebsiella pneumoniae; irradiation period of 10 min) was “further increase”.
With `CN(C)c1ccc2nc3ccc(N(C)C)cc3[s+]c2c1.[Cl-]` [methylene blue, 3,7-bis(dimethylamino)-phenothiazin-5-ium chloride] the cfu per ml [2, 7] was 2.9 × 10^7 cfu/ml, the cfu per ml [2, 8] was 0 cfu/ml and the cfu per ml [2, 9] was 1.4 × 10^7 cfu/ml. For the same molecule, the cfu per ml [2, 10] was 0 cfu/ml, the cfu per ml (Candida albicans [3]; [7]) was 2.7 × 10^7 cfu/ml* and the cfu per ml (Candida albicans [3]; [8]) was 2.3 × 10^7 cfu/ml*. The cfu per ml (Candida albicans [3]; [9]) was 2.3 × 10^7 cfu/ml*, the cfu per ml (Candida albicans [3]; [10]) was 2.2 × 10^7 cfu/ml* and the cfu per ml (Staphylococcus aureus [4]; black light lamp, irradiation for 30 s, dilution 10^−5) was 1.2 × 10^8 cfu/ml. For the same molecule, the cfu per ml (Staphylococcus aureus [4]; black light lamp, irradiation for 3 min, dilution 10^−5) was 1.5 × 10^7 cfu/ml, the “colony forming units obtained” value (Staphylococcus aureus [4]) was 177 cfu and the colonies detected (Staphylococcus aureus [4]; [11]) was “one colony”. The cfu per ml (Staphylococcus aureus [4]; irradiation 2 min with LED1, 620-640 nm, dilution 10^−5) was 1.2×10^7 cfu/ml, the cfu per ml (Staphylococcus aureus [4]; irradiation 2 min with LED2, 620-640 nm, dilution 10^−5) was 2.0×10^6 cfu/ml and the colonies detected (Staphylococcus aureus [4]; black light lamp 350-370 nm, dilution 10^−5) was 15. The colonies detected (Staphylococcus aureus [4]; mercury lamp 515-560 nm, dilution 10^−5) was “No colonies”, the cfu per ml (Staphylococcus aureus [4]; mercury lamp, irradiation for 30 s, dilution 10^−5) was 2.1 × 10^7 cfu/ml and the cfu per ml (Staphylococcus aureus [4]; mercury lamp, irradiation for 3 min, dilution 10^−5) was 1.0 × 10^5 cfu/ml. For the same molecule, the “cfu calculated per ml cell culture” value (Staphylococcus aureus [1]; [12]) was 0 cfu/ml, the “cfu calculated per ml cell culture” value (Staphylococcus aureus [1]; [13]) was 0 cfu/ml and the “cfu calculated per ml cell culture” value (Staphylococcus aureus [1]; [14]) was 1.7 × 10^8 cfu/ml. The “cfu calculated per ml cell culture” value (Staphylococcus aureus [1]; [15]) was 0 cfu/ml, the “number of colonies upon irradiation” value (Staphylococcus aureus [1]; irradiation 2 min with LED1, 620-640 nm) was “significant reduction of the number of colonies” and the “number of colonies upon irradiation” value (Staphylococcus aureus [1]; irradiation 2 min with LED2, 620-640 nm) was “significant reduction of the number of colonies”. For the same molecule, the growth inhibition (Staphylococcus aureus [1]; [16]) was “complete”, the “colonies (cfu) after contact sampling” value (Staphylococcus aureus [1]; [17]) was “no colonies” and the “growth after contact sampling without irradiation” value (Staphylococcus aureus [1]; [18]) was “lawn of bacteria”. The “cfu calculated per ml cell culture” value [5, 12] was 1.0 × 10^5 cfu/ml, the “cfu calculated per ml cell culture” value [5, 13] was 1.0 × 10^5 cfu/ml and the “cfu calculated per ml cell culture” value [5, 14] was 1.1 × 10^8 cfu/ml. The “cfu calculated per ml cell culture” value [5, 15] was 1.0 × 10^5 cfu/ml, the growth inhibition [5, 16] was “almost complete” and the “colonies (cfu) after contact sampling” value [5, 17] was “two colonies”. For the same molecule, the “growth after contact sampling without irradiation” value [5, 18] was “lawn of bacteria” and the “microbial growth upon irradiation” value (Candida albicans [6]) was “significant reduction of microbial growth”.
With `CCNc1cc2[s+]c3cc(NCC)c(C)cc3nc2cc1C.[Cl-]` [new methylene blue, 3,7-bis(ethylamino)-2,8-dimethylphenaza-thionium chloride] the cell growth (Staphylococcus aureus [1]; LED 623 nm) was “only a small reduction of cell growth” and the “reduction of cell growth” value (Staphylococcus aureus [1]; LED 623 nm, irradiation for 2 min and 5 min, data not shown) was “more than 50%”.
In the case of `Cc1cc2nc3ccc(=[N+](C)C)cc-3sc2cc1N.[Cl-]` [toluidine blue], the “colony forming units obtained” value (Staphylococcus aureus [4]) is reported as 89 cfu, the colonies detected (Staphylococcus aureus [4]; [11]) is reported as “no colony” and the “cfu calculated per ml cell culture” value (Staphylococcus aureus [1]; [12]) is reported as 9.0 × 10^4 cfu/ml. The “cfu calculated per ml cell culture” value (Staphylococcus aureus [1]; [13]) was 5.0 × 10^4 cfu/ml, the “cfu calculated per ml cell culture” value (Staphylococcus aureus [1]; [14]) was 8.9 × 10^6 cfu/ml and the “cfu calculated per ml cell culture” value (Staphylococcus aureus [1]; [15]) was 0 cfu/ml.
